# In ChEMBL document CHEMBL1201862, “PubChem BioAssay data set” (2004):
#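 A five-concentration, 48-hour dose response in 96-well plates underlies each endpoint, interpolated linearly between surrounding concentrations. GI50 = concentration required for 50% inhibition of growth.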 Active and inactive are the calls of the source. No stated cut-off is given here; in the data, active = GI50 up to about 1.1 µM and inactive = higher.
# Experiments:
# Assay in all cases: NCI anticancer screen, dose series, 48 h
# M14 = system: M14
# SK-OV-3 = system: SK-OV-3
# LXFL 529 = system: LXFL 529
# MOLT-4 = system: MOLT-4
# OVCAR-8 = system: OVCAR-8
# DMS-273 = system: DMS-273
# UACC-257 = system: UACC-257
# ACHN = system: ACHN
# A498 = system: A498
# A549 = system: A549
# NCI-H522 = system: NCI-H522
# U-251 = system: U-251
# LOX IMVI = system: LOX IMVI
# SNB-78 = system: SNB-78
# HL-60 = system: HL-60
# SK-MEL-28 = system: SK-MEL-28
# SK-MEL-2 = system: SK-MEL-2
# OVCAR-4 = system: OVCAR-4
# HCC 2998 = system: HCC 2998
# NCI-H226 = system: NCI-H226
# KM12 = system: KM12
# K562 = system: K562
# NCI-H460 = system: NCI-H460
# SK-MEL-5 = system: SK-MEL-5
# TK-10 = system: TK-10
# HCT-15 = system: HCT-15
# SF-295 = system: SF-295
# OVCAR-3 = system: OVCAR-3
# HT-29 = system: HT-29
# HCT-116 = system: HCT-116
# SF-268 = system: SF-268
# UACC-62 = system: UACC-62
# DMS-114 = system: DMS-114
# SNB-75 = system: SNB-75
# M19-MEL = system: M19-MEL
# CCRF-CEM = system: CCRF-CEM
# SNB-19 = system: SNB-19
# UO-31 = system: UO-31
# SF-539 = system: SF-539
# IGROV-1 = system: IGROV-1
# 786-0 = system: 786-0
# SN12C = system: SN12C
# Malme-3M = system: Malme-3M
# XF498 = system: XF498
# HOP-18 = system: HOP-18
# KM-20L2 = system: KM-20L2
# RPMI-8226 = system: RPMI-8226
# COLO 205 = system: COLO 205
# NCI-H23 = system: NCI-H23
# RXF 393 = system: RXF 393
# EKVX = system: EKVX
# SW-620 = system: SW-620
compound,measurement,setting,value
CC(O)CNC(=O)C(C)Oc1ccc(OCC2CCCCC2)cc1 (stereo not drawn),GI50,M14,> 100 µM (inactive)
same,GI50,SK-OV-3,> 100 µM (inactive)
same,GI50,LXFL 529,> 100 µM (inactive)
same,GI50,MOLT-4,> 100 µM (inactive)
same,GI50,OVCAR-8,> 100 µM (inactive)
same,GI50,DMS-273,> 100 µM (inactive)
same,GI50,UACC-257,73.6 µM (inactive)
same,GI50,ACHN,> 100 µM (inactive)
same,GI50,A498,20.7 µM (inactive)
same,GI50,A549,> 100 µM (inactive)
same,GI50,NCI-H522,> 100 µM (inactive)
same,GI50,U-251,> 100 µM (inactive)
same,GI50,LOX IMVI,> 100 µM (inactive)
same,GI50,SNB-78,> 100 µM (inactive)
same,GI50,HL-60,> 100 µM (inactive)
same,GI50,SK-MEL-28,> 100 µM (inactive)
same,GI50,SK-MEL-2,> 100 µM (inactive)
same,GI50,OVCAR-4,> 100 µM (inactive)
same,GI50,HCC 2998,> 100 µM (inactive)
same,GI50,NCI-H226,88.5 µM (inactive)
same,GI50,KM12,> 100 µM (inactive)
same,GI50,K562,> 100 µM (inactive)
same,GI50,NCI-H460,> 100 µM (inactive)
same,GI50,SK-MEL-5,> 100 µM (inactive)
same,GI50,TK-10,> 100 µM (inactive)
same,GI50,HCT-15,> 100 µM
same,GI50,SF-295,84.1 µM (inactive)
same,GI50,OVCAR-3,> 100 µM (inactive)
same,GI50,HT-29,> 100 µM (inactive)
same,GI50,HCT-116,> 100 µM (inactive)
same,GI50,SF-268,> 100 µM (inactive)
same,GI50,UACC-62,> 100 µM (inactive)
same,GI50,DMS-114,46.3 µM (inactive)
same,GI50,SNB-75,> 100 µM (inactive)
same,GI50,M19-MEL,> 100 µM (inactive)
same,GI50,CCRF-CEM,> 100 µM (inactive)
same,GI50,SNB-19,> 100 µM (inactive)
same,GI50,UO-31,> 100 µM (inactive)
same,GI50,SF-539,> 100 µM (inactive)
same,GI50,IGROV-1,> 100 µM (inactive)
same,GI50,786-0,> 100 µM (inactive)
same,GI50,SN12C,> 100 µM (inactive)
same,GI50,Malme-3M,> 100 µM (inactive)
same,GI50,XF498,> 100 µM (inactive)
same,GI50,HOP-18,> 100 µM (inactive)
CCOC(=O)COc1ccc(OC)c2c1C(=O)CCC2,GI50,M14,> 100 µM (inactive)
same,GI50,SK-OV-3,> 100 µM (inactive)
same,GI50,KM-20L2,> 100 µM (inactive)
same,GI50,LXFL 529,> 100 µM (inactive)
same,GI50,MOLT-4,> 100 µM (inactive)
same,GI50,OVCAR-8,> 100 µM (inactive)
same,GI50,DMS-273,> 100 µM (inactive)
same,GI50,UACC-257,> 100 µM (inactive)
same,GI50,RPMI-8226,> 100 µM (inactive)
same,GI50,ACHN,> 100 µM (inactive)
same,GI50,A498,> 100 µM (inactive)
same,GI50,A549,> 100 µM (inactive)
same,GI50,U-251,> 100 µM (inactive)
same,GI50,LOX IMVI,> 100 µM (inactive)
same,GI50,COLO 205,> 100 µM (inactive)
same,GI50,SNB-78,> 100 µM (inactive)
same,GI50,HL-60,> 100 µM (inactive)
same,GI50,NCI-H23,> 100 µM (inactive)
same,GI50,SK-MEL-28,> 100 µM (inactive)
same,GI50,OVCAR-4,> 100 µM (inactive)
same,GI50,K562,> 100 µM (inactive)
same,GI50,NCI-H460,> 100 µM (inactive)
same,GI50,SK-MEL-5,> 100 µM (inactive)
same,GI50,TK-10,> 100 µM (inactive)
same,GI50,HCT-15,> 100 µM
same,GI50,SF-295,> 100 µM (inactive)
same,GI50,OVCAR-3,> 100 µM (inactive)
same,GI50,RXF 393,> 100 µM (inactive)
same,GI50,HT-29,> 100 µM (inactive)
same,GI50,HCT-116,> 100 µM (inactive)
same,GI50,UACC-62,> 100 µM (inactive)
same,GI50,DMS-114,> 100 µM (inactive)
same,GI50,SNB-75,> 100 µM (inactive)
same,GI50,M19-MEL,> 100 µM (inactive)
same,GI50,CCRF-CEM,> 100 µM (inactive)
same,GI50,SNB-19,20 µM (inactive)
same,GI50,SF-539,> 100 µM (inactive)
same,GI50,IGROV-1,> 100 µM (inactive)
same,GI50,EKVX,> 100 µM (inactive)
same,GI50,SN12C,> 100 µM (inactive)
same,GI50,XF498,> 100 µM (inactive)
same,GI50,SW-620,> 100 µM (inactive)
same,GI50,HOP-18,> 100 µM (inactive)
